Test results as given in patent publication US20160046570A1, “N-ACYLOXYSULFONAMIDE AND N-HYDROXY-N-ACYLSULFONAMIDE DERIVATIVES” (The Johns Hopkins University, priority 2009, published 2016).

Key:
[1] = HNO production via N2O quantification (GC headspace), PBS buffer pH 7.4; type: physicochemical; conditions: pH 7.4, 37° C. under argon, relative to Angeli's salt
Experimental: (§1) Nitrous oxide is produced via the dimerization and dehydration of HNO, and is the most common marker for HNO production (Fukuto, J. M. et al., Chem. Res. Toxicol. 2005, 18, 790-801).
(§2) The ability of compounds to donate HNO is assessed. N2O results are reported relative to Angeli's salt. All decompositions are carried out at 37° C. under argon.

esterase = experiment: HNO production via N2O quantification (GC headspace), PBS buffer pH 7.4 with added esterase; type: in vitro ADME; conditions: pH 7.4 with 2-4 mg added esterase, 37° C. under argon, relative to Angeli's salt, N2O measured at 1 hr
Experimental: as §1, §2

| Structure (SMILES) | % N2O pH 7.4 ([1]; no measurement time printed) | % N2O esterase (esterase) | % N2O pH 7.4 ([1]; N2O measured at 5 hr) |
| --- | --- | --- | --- |
| CC(C)(C)C(=O)N(O)S(=O)(=O)c1c(Cl)cccc1Cl [Compound 16, N-hydroxy-N-trimethylacetyl-2,6-dichlorobenzenesulfonamide] | 41% | – | – |
| O=C(c1ccccc1)N(O)S(=O)(=O)c1ccccc1 [Compound 15, N-hydroxy-N-benzoyl- benzenesulfonamide] | 19% | – | – |
| CC(=O)ONS(=O)(=O)c1c(Cl)cccc1Cl [Compound 3, N-acetyloxy-2,6-dichlorobenzenesulfonamide] | – | 56 (1 hr) % | <3 (5 hr) % |
| CC(=O)ONS(=O)(=O)c1ccccc1Br [Compound 2, N-(acetyloxy)-2-bromobenzenesulfonamide] | – | 53 (1 hr) % | <3 (5 hr) % |
